Laboratory results taken from patent US11730815B2, “Stable liquid pharmaceutical compositions comprising bendamustine” (GOOD HEALTH, LLC, priority 2018, dated 2023).
≈ marks a conversion by molar mass, not a printed value. Entries after “also recorded” stand apart in the source; their conditions may differ. Each block holds one compound with its values, some of them ahead of it.

Tests used:
Type in all cases: physicochemical
[1] = Solubility of HPβCD in non-aqueous solvents; conditions: sonicated 10 minutes
Method: PG, PEG 200, PEG 300, PEG 400, and PEG 600 were added to vials containing hydroxy propyl-β-cyclodextrin (HPβCD) (50 mg) and sonicated for 10 minutes. […]

[2] = Solubility of bendamustine in non-aqueous solvents; conditions: sonication; for solubility: organic solvent or mixture, thermodynamic from solid
Method: Bendamustine HCl was added in 5-10 mg increments to vials containing PG, PEG 200, PEG 300, PEG 400, and PEG 600, and the mixtures were sonicated. Sonication was stopped when the solution remained turbid after 8-10 minutes of sonication.
Note: The solubility might be slightly overestimated because of the generation of heat during long sonication.

[3] = Solubility of bendamustine in non-aqueous solvents in the presence of cyclodextrin; conditions: for solubility: organic solvent or mixture, thermodynamic from solid
Method: Bendamustine HCl was added to vials containing 50 mg of HPβCD per mL and PG, PEG 200, PEG 300, PEG 400, or PEG 600, and the mixtures were sonicated for about 8-10 minutes after each addition of bendamustine. The addition of bendamustine was stopped when the solutions remained turbid even after sonication for about 8-10 minutes.

- Solubility of HPβCD: Physical observation ([1]; 50 mg HPβCD per mL of PEG 200): adequate; also recorded: Clear
- Solubility of HPβCD: Physical observation ([1]; 50 mg HPβCD per mL of PEG 300): adequate; also recorded: Clear
- Solubility of HPβCD: Physical observation ([1]; 50 mg HPβCD per mL of PEG 400): insoluble; also recorded: Turbid
- Solubility of HPβCD: Physical observation ([1]; 50 mg HPβCD per mL of PEG 600): insoluble; also recorded: Turbid
- Solubility of HPβCD: Physical observation ([1]; 50 mg HPβCD per mL of PG): adequate; also recorded: Clear
Compound: hydroxy propyl-β-cyclodextrin [HPβCD]

Compound: Cn1c(CCCC(=O)O)nc2cc(N(CCCl)CCCl)ccc21 [bendamustine, 4-(5-(bis(2-chloroethyl)amino)-1-methyl-1H-benzo[d]imidazol-2-yl)butanoic acid]
- solubility ([2]; PEG 200 (non-aqueous solvent), in PEG 200): > 50 mg/mL
- solubility ([2]; PEG 300 (non-aqueous solvent), in PEG 300): > 50 mg/mL
- solubility ([2]; PEG 400 (non-aqueous solvent), in PEG 400): 25 to 30 mg/mL (≈ 69.8 to 83.7 mM)
- solubility ([2]; PEG 600 (non-aqueous solvent), in PEG 600): 8 to 10 mg/mL (≈ 22.3 to 27.9 mM)
- solubility ([2]; PG (non-aqueous solvent), in PG): > 50 mg/mL
- Solubility of bendamustine ([2]; in PEG 200): adequate
- Solubility of bendamustine ([2]; in PEG 300): adequate
- Solubility of bendamustine ([2]; in PEG 400): insufficient
- Solubility of bendamustine ([2]; in PEG 600): insufficient
- Solubility of bendamustine ([2]; in PG): adequate
- solubility ([3]; PEG 200 with 50 mg/mL HPβCD, in PEG 200 with 50 mg HPβCD per mL): 50 mg/mL
- solubility ([3]; PEG 300 with 50 mg/mL HPβCD, in PEG 300 with 50 mg HPβCD per mL): 50 mg/mL
- solubility ([3]; PEG 400 with 50 mg/mL HPβCD, in PEG 400 with 50 mg HPβCD per mL): 40 to 45 mg/mL
- solubility ([3]; PEG 600 with 50 mg/mL HPβCD, in PEG 600 with 50 mg HPβCD per mL): 25 to 30 mg/mL
- solubility ([3]; PG with 50 mg/mL HPβCD, in PG with 50 mg HPβCD per mL): 50 mg/mL
- Appearance of resulting liquid mixture ([3]; in PEG 200 with 50 mg HPβCD per mL): Clear solution
- Appearance of resulting liquid mixture ([3]; in PEG 300 with 50 mg HPβCD per mL): Clear solution
- Appearance of resulting liquid mixture ([3]; in PEG 400 with 50 mg HPβCD per mL): Clear solution
- Appearance of resulting liquid mixture ([3]; in PEG 600 with 50 mg HPβCD per mL): Clear solution
- Appearance of resulting liquid mixture ([3]; in PG with 50 mg HPβCD per mL): Clear solution
